≈ marks a conversion by molar mass, not a printed value.
System: Human immunodeficiency virus 1
Experiment: Antiviral activity against HIV1 IIIB harboring RES056 mutant infected in MT4 cells assessed as reduction in virus induced cytopathic effect incubated for 5 days by MTT method
Format: functional, organism-based
Settings: Human immunodeficiency virus 1, IIIB, MT4, 120 h

First: COC(=O)CCCn1cc(CN2CCC(Nc3nccc(Oc4c(C)cc(/C=C/C#N)cc4C)n3)CC2)nn1
Second: CNC(=O)Cn1cc(CN2CCC(Nc3nc(Oc4c(C)cc(/C=C/C#N)cc4C)c4ccsc4n3)CC2)nn1
The EC50 of the first is 41-fold higher: 2360 nM for the first, 58 nM for the second.

Compared with `Cc1cc(/C=C/C#N)cc(C)c1Oc1nc(NC2CCN(Cc3cn(CC(N)=O)nn3)CC2)nc2sccc12`, `Cc1cc(C#N)cc(C)c1Oc1ccnc(NC2CCN(Cc3cn(Cc4ccc(C(N)=O)cc4)nn3)CC2)n1` is higher in EC50: 89 nM for the first, > 7690 nM for the second. The first is the more potent here.

System: not listed separately
Experiment: Aqueous solubility of compound at pH 7 incubated for 24 hrs under shaking condition by HPLC method
Format: physicochemical
Settings: buffer

In order of rising solubility thermodynamic at 24 h:
1. Cc1cc(/C=C/C#N)cc(C)c1Oc1nc(NC2CCN(Cc3cn(CC(N)=O)nn3)CC2)nc2sccc12  22.5 µg/mL (≈ 41.4 µM)
2. CNC(=O)Cn1cc(CN2CCC(Nc3nc(Oc4c(C)cc(/C=C/C#N)cc4C)c4ccsc4n3)CC2)nn1  23.6 µg/mL (≈ 42.3 µM)

System: Human immunodeficiency virus 1
Experiment: Antiviral activity against HIV1 IIIB infected in MT4 cells assessed as reduction in virus induced cytopathic effect incubated for 5 days by MTT method
Format: functional, organism-based
Settings: Human immunodeficiency virus 1, IIIB, MT4, 120 h

In order of rising EC50:
1. Cc1cc(C#N)cc(C)c1Oc1ccnc(NC2CCN(Cc3cn(Cc4ccc(C(N)=O)cc4)nn3)CC2)n1  2 nM
2. Cc1cc(/C=C/C#N)cc(C)c1Oc1nc(NC2CCN(Cc3cn(CC(N)=O)nn3)CC2)nc2sccc12  4 nM
3. CNC(=O)Cn1cc(CN2CCC(Nc3nc(Oc4c(C)cc(/C=C/C#N)cc4C)c4ccsc4n3)CC2)nn1  5 nM
4. COC(=O)CCCn1cc(CN2CCC(Nc3nccc(Oc4c(C)cc(/C=C/C#N)cc4C)n3)CC2)nn1  6 nM

System: Human immunodeficiency virus 1
Experiment: Antiviral activity against HIV1 IIIB harboring Y188L mutant infected in MT4 cells assessed as fold increase in reduction of virus induced cytopathic effect incubated for 5 days by MTT method relative to A6N36
Format: functional
Settings: time 5 day

In order of falling “fold change (FC)” value:
1. Cc1cc(/C=C/C#N)cc(C)c1Oc1nc(NC2CCN(Cc3cn(CC(N)=O)nn3)CC2)nc2sccc12  3
2. CNC(=O)Cn1cc(CN2CCC(Nc3nc(Oc4c(C)cc(/C=C/C#N)cc4C)c4ccsc4n3)CC2)nn1  3

System: Human immunodeficiency virus 1
Experiment: Antiviral activity against HIV1 IIIB harboring F227L/V106A double mutant infected in MT4 cells assessed as reduction in virus induced cytopathic effect incubated for 5 days by MTT method
Format: functional, organism-based
Settings: Human immunodeficiency virus 1, IIIB, MT4, 120 h

In order of falling EC50:
1. Cc1cc(C#N)cc(C)c1Oc1ccnc(NC2CCN(Cc3cn(Cc4ccc(C(N)=O)cc4)nn3)CC2)n1  1040 nM
2. COC(=O)CCCn1cc(CN2CCC(Nc3nccc(Oc4c(C)cc(/C=C/C#N)cc4C)n3)CC2)nn1  830 nM
3. Cc1cc(/C=C/C#N)cc(C)c1Oc1nc(NC2CCN(Cc3cn(CC(N)=O)nn3)CC2)nc2sccc12  51 nM
4. CNC(=O)Cn1cc(CN2CCC(Nc3nc(Oc4c(C)cc(/C=C/C#N)cc4C)c4ccsc4n3)CC2)nn1  28 nM

System: Human immunodeficiency virus 1
Experiment: Antiviral activity against HIV1 IIIB harboring L100I mutant infected in MT4 cells assessed as reduction in virus induced cytopathic effect incubated for 5 days by MTT method
Format: functional, organism-based
Settings: Human immunodeficiency virus 1, IIIB, MT4, 120 h

In order of rising EC50:
1. CNC(=O)Cn1cc(CN2CCC(Nc3nc(Oc4c(C)cc(/C=C/C#N)cc4C)c4ccsc4n3)CC2)nn1  4 nM
2. Cc1cc(/C=C/C#N)cc(C)c1Oc1nc(NC2CCN(Cc3cn(CC(N)=O)nn3)CC2)nc2sccc12  6 nM
3. COC(=O)CCCn1cc(CN2CCC(Nc3nccc(Oc4c(C)cc(/C=C/C#N)cc4C)n3)CC2)nn1  28 nM
4. Cc1cc(C#N)cc(C)c1Oc1ccnc(NC2CCN(Cc3cn(Cc4ccc(C(N)=O)cc4)nn3)CC2)n1  50 nM

System: not listed separately
Experiment: Selectivity index, ratio of CC50 for human MT4 cells to EC50 for antiviral activity against HIV1 IIIB infected in MT4 cells
Format: toxicity, cell-based
Settings: read-out: Ratio CC50/EC50

In order of rising selectivity ratio:
1. COC(=O)CCCn1cc(CN2CCC(Nc3nccc(Oc4c(C)cc(/C=C/C#N)cc4C)n3)CC2)nn1  2680
2. CNC(=O)Cn1cc(CN2CCC(Nc3nc(Oc4c(C)cc(/C=C/C#N)cc4C)c4ccsc4n3)CC2)nn1  3990
3. Cc1cc(/C=C/C#N)cc(C)c1Oc1nc(NC2CCN(Cc3cn(CC(N)=O)nn3)CC2)nc2sccc12  14500

System: not listed separately
Experiment: Cytotoxicity against human MT4 cells assessed as reduction in cell viability incubated for 5 days by MTT method
Format: toxicity, cell-based
Settings: time 5 day

In order of rising CC50 at 120 h:
1. Cc1cc(C#N)cc(C)c1Oc1ccnc(NC2CCN(Cc3cn(Cc4ccc(C(N)=O)cc4)nn3)CC2)n1  7690 nM
2. COC(=O)CCCn1cc(CN2CCC(Nc3nccc(Oc4c(C)cc(/C=C/C#N)cc4C)n3)CC2)nn1  16100 nM
3. CNC(=O)Cn1cc(CN2CCC(Nc3nc(Oc4c(C)cc(/C=C/C#N)cc4C)c4ccsc4n3)CC2)nn1  18700 nM
4. Cc1cc(/C=C/C#N)cc(C)c1Oc1nc(NC2CCN(Cc3cn(CC(N)=O)nn3)CC2)nc2sccc12  62500 nM

System: not listed separately
Experiment: Aqueous solubility of compound at pH 2 incubated for 24 hrs under shaking condition by HPLC method
Format: physicochemical
Settings: buffer

In order of falling solubility thermodynamic at 24 h:
1. CNC(=O)Cn1cc(CN2CCC(Nc3nc(Oc4c(C)cc(/C=C/C#N)cc4C)c4ccsc4n3)CC2)nn1  733 µg/mL (≈ 1310 µM)
2. Cc1cc(/C=C/C#N)cc(C)c1Oc1nc(NC2CCN(Cc3cn(CC(N)=O)nn3)CC2)nc2sccc12  228 µg/mL (≈ 419 µM)

System: Human immunodeficiency virus 1
Experiment: Antiviral activity against HIV1 IIIB harboring Y181C mutant infected in MT4 cells assessed as reduction in virus induced cytopathic effect incubated for 5 days by MTT method
Format: functional, organism-based
Settings: Human immunodeficiency virus 1, IIIB, MT4, 120 h

In order of rising EC50:
1. CNC(=O)Cn1cc(CN2CCC(Nc3nc(Oc4c(C)cc(/C=C/C#N)cc4C)c4ccsc4n3)CC2)nn1  8 nM
2. Cc1cc(C#N)cc(C)c1Oc1ccnc(NC2CCN(Cc3cn(Cc4ccc(C(N)=O)cc4)nn3)CC2)n1  11 nM
3. Cc1cc(/C=C/C#N)cc(C)c1Oc1nc(NC2CCN(Cc3cn(CC(N)=O)nn3)CC2)nc2sccc12  17 nM
4. COC(=O)CCCn1cc(CN2CCC(Nc3nccc(Oc4c(C)cc(/C=C/C#N)cc4C)n3)CC2)nn1  28 nM

System: Human immunodeficiency virus 1
Experiment: Antiviral activity against HIV1 IIIB harboring RES056 mutant infected in MT4 cells assessed as fold increase in reduction of virus induced cytopathic effect incubated for 5 days by MTT method relative to A6N36
Format: functional
Settings: time 5 day

For `CNC(=O)Cn1cc(CN2CCC(Nc3nc(Oc4c(C)cc(/C=C/C#N)cc4C)c4ccsc4n3)CC2)nn1`, the “fold change (FC)” value was 2.

Molecular target: Human immunodeficiency virus type 1 reverse transcriptase (Human immunodeficiency virus 1) (UniProt Q72547)
Experiment: Inhibition of HIV-1 reverse transcriptase incubated for 2 hrs in presence of template and viral nucleotides by ELISA relative to control
Design: concentration or dose not given beside the values
Settings: concentration not given here

In order of rising inhibition:
1. COC(=O)CCCn1cc(CN2CCC(Nc3nccc(Oc4c(C)cc(/C=C/C#N)cc4C)n3)CC2)nn1  90.7%
2. Cc1cc(C#N)cc(C)c1Oc1ccnc(NC2CCN(Cc3cn(Cc4ccc(C(N)=O)cc4)nn3)CC2)n1  94.1%

System: Human immunodeficiency virus 1
Experiment: Antiviral activity against HIV1 IIIB harboring Y188L mutant infected in MT4 cells assessed as reduction in virus induced cytopathic effect incubated for 5 days by MTT method
Format: functional, organism-based
Settings: Human immunodeficiency virus 1, IIIB, MT4, 120 h

In order of falling EC50:
1. COC(=O)CCCn1cc(CN2CCC(Nc3nccc(Oc4c(C)cc(/C=C/C#N)cc4C)n3)CC2)nn1  1090 nM
2. Cc1cc(C#N)cc(C)c1Oc1ccnc(NC2CCN(Cc3cn(Cc4ccc(C(N)=O)cc4)nn3)CC2)n1  97 nM
3. Cc1cc(/C=C/C#N)cc(C)c1Oc1nc(NC2CCN(Cc3cn(CC(N)=O)nn3)CC2)nc2sccc12  39 nM
4. CNC(=O)Cn1cc(CN2CCC(Nc3nc(Oc4c(C)cc(/C=C/C#N)cc4C)c4ccsc4n3)CC2)nn1  30 nM

System: Human immunodeficiency virus 1
Experiment: Antiviral activity against HIV1 IIIB harboring K103 N mutant infected in MT4 cells assessed as reduction in virus induced cytopathic effect incubated for 5 days by MTT method
Format: functional, organism-based
Settings: Human immunodeficiency virus 1, IIIB, MT4, 120 h

In order of rising EC50:
1. CNC(=O)Cn1cc(CN2CCC(Nc3nc(Oc4c(C)cc(/C=C/C#N)cc4C)c4ccsc4n3)CC2)nn1  3 nM
2. Cc1cc(/C=C/C#N)cc(C)c1Oc1nc(NC2CCN(Cc3cn(CC(N)=O)nn3)CC2)nc2sccc12  5 nM
3. Cc1cc(C#N)cc(C)c1Oc1ccnc(NC2CCN(Cc3cn(Cc4ccc(C(N)=O)cc4)nn3)CC2)n1  7 nM
4. COC(=O)CCCn1cc(CN2CCC(Nc3nccc(Oc4c(C)cc(/C=C/C#N)cc4C)n3)CC2)nn1  8 nM

Molecular target: Human immunodeficiency virus type 1 reverse transcriptase (Human immunodeficiency virus 1, UniProt Q72547)
Experiment: Inhibition of HIV-1 reverse transcriptase assessed as reduction in biotin-dUTP incorporation incubated for 2 hrs in presence of template and viral nucleotides by ELISA
Settings: not given

In order of falling IC50:
1. CNC(=O)Cn1cc(CN2CCC(Nc3nc(Oc4c(C)cc(/C=C/C#N)cc4C)c4ccsc4n3)CC2)nn1  134 nM
2. Cc1cc(/C=C/C#N)cc(C)c1Oc1nc(NC2CCN(Cc3cn(CC(N)=O)nn3)CC2)nc2sccc12  118 nM
3. COC(=O)CCCn1cc(CN2CCC(Nc3nccc(Oc4c(C)cc(/C=C/C#N)cc4C)n3)CC2)nn1  73 nM
4. Cc1cc(C#N)cc(C)c1Oc1ccnc(NC2CCN(Cc3cn(Cc4ccc(C(N)=O)cc4)nn3)CC2)n1  55 nM

System: Human immunodeficiency virus 1
Experiment: Antiviral activity against HIV1 IIIB harboring E138K mutant infected in MT4 cells assessed as reduction in virus induced cytopathic effect incubated for 5 days by MTT method
Format: functional, organism-based
Settings: Human immunodeficiency virus 1, IIIB, MT4, 120 h

In order of rising EC50:
1. CNC(=O)Cn1cc(CN2CCC(Nc3nc(Oc4c(C)cc(/C=C/C#N)cc4C)c4ccsc4n3)CC2)nn1  9 nM
2. Cc1cc(/C=C/C#N)cc(C)c1Oc1nc(NC2CCN(Cc3cn(CC(N)=O)nn3)CC2)nc2sccc12  14 nM
3. Cc1cc(C#N)cc(C)c1Oc1ccnc(NC2CCN(Cc3cn(Cc4ccc(C(N)=O)cc4)nn3)CC2)n1  14 nM
4. COC(=O)CCCn1cc(CN2CCC(Nc3nccc(Oc4c(C)cc(/C=C/C#N)cc4C)n3)CC2)nn1  36 nM

System: not listed separately
Experiment: Aqueous solubility of compound at pH 7.4 incubated for 24 hrs under shaking condition by HPLC method
Format: physicochemical
Settings: buffer

In order of rising solubility thermodynamic at 24 h:
1. Cc1cc(/C=C/C#N)cc(C)c1Oc1nc(NC2CCN(Cc3cn(CC(N)=O)nn3)CC2)nc2sccc12  20.1 µg/mL (≈ 37 µM)
2. CNC(=O)Cn1cc(CN2CCC(Nc3nc(Oc4c(C)cc(/C=C/C#N)cc4C)c4ccsc4n3)CC2)nn1  20.1 µg/mL (≈ 36 µM)

System: Human immunodeficiency virus 1
Experiment: Antiviral activity against HIV1 IIIB harboring F227L/V106A double mutant infected in MT4 cells assessed as fold increase in reduction of virus induced cytopathic effect incubated for 5 days by MTT method relative to A6N36
Format: functional
Settings: time 5 day

For `CNC(=O)Cn1cc(CN2CCC(Nc3nc(Oc4c(C)cc(/C=C/C#N)cc4C)c4ccsc4n3)CC2)nn1`, the “fold change (FC)” value was 2.

Reference: ChEMBL document CHEMBL5614409, “Discovery of potent HIV-1 NNRTIs by CuAAC click-chemistry-based miniaturized synthesis, rapid screening and structure optimization” (Eur J Med Chem, 2024)
